Measurements: patent US12398121B2 (Nuvation Bio Inc., priority 2018, dated 2025)
Where two headings read alike, the source gives them in different places.

Legend:
[1] = target: Human recombinant PARP1 (Homo sapiens, UniProt P09874); assay: RBC HotSpot PARP1 radioisotope-based filter binding assay; type: biochemical
Protocol: (§1) The following methods are for evaluating the in vitro biology properties of the test articles. • a. RBC HotSpot Poly(ADP-ribose) Polymerases 1 (PARP1) and Poly(ADP-ribose) Polymerases 2 (PARP2) Assays: The assay principle is radioisotope-based filter binding assay where incorporation of radioisotope-labeled NAD^+ into the substrate captured on filter is detected after washout free NAD^+. Data were analyzed using Excel and GraphPad Prism software for IC50 curve fits. Each assay was conducted with PJ34 as a positive control. • i. PARP1 assay: Human recombinant PARP1 at a final concentration of 2.5 nM was combined with histone H4 (20 μM) and test articles at various concentrations in reaction buffer (50 mM Tris-HCL, pH 8.0, 50 mM NaCl, 10 mM MgCl2, 1 mM DTT, 1% DMSO, and 20 μg/mL activated DNA). The solution was inoculated for 20 min at room temperature and the reaction initiated by adding [adenylate-^32P]-Nicotinamide Adenine Dinucleotide, ^32P-NAD^+ at a final concentration of 10 μM. After incubation for 2 hour at room temperature, the reaction mixture was filtered and washed with 0.75% phosphoric acid for radioactivity detection. • ii. PARP2 assay: Human recombinant PARP2 at a final concentration of 2.5 nM was combined with histone H3 (20 μM) and test articles at various concentrations in reaction buffer (50 mM Tris-HCL, pH 8.0, 50 mM NaCl, 10 mM MgCl2, 1 mM DTT, 1% DMSO, and 20 μg/mL activated DNA). The solution was inoculated for 20 min at room temperature and the reaction was initiated by adding [adenylate-^32P]-Nicotinamide Adenine Dinucleotide, ^32P-NAD^+ at a final concentration of 10 μM. After incubation for 2 hour at room temperature, the reaction mixture was filtered and washed with 0.75% phosphoric acid for radioactivity detection. • b. AR binding assay: AR in LNCaP cytosol was used for determining the binding affinity of test articles and the reference compound—progesterone (Sigma, Cat: E2785, St. Louis, MO). IC50s were determined using 8 concentrations/compound. Cytosol was plated at 200 μg/well (100 μL) into a 96-well conical polypropylene plate (Agilent, Cat: 5042-1385, Santa Clara, CA) and mixed with 3 μL of test compound. After adding 100 μL of ^3H-methyltrienolone (PerkinElmer, Cat: NET590250UC, San Jose, CA), the plate was sealed and shaken at 300 rpm at 4° C. for 24 hours. Post incubation, 100 μL of radioligand adsorption buffer containing 10 mM Tris-HCl, pH 7.4; 1.5 mM EDTA; 1 mM DTT; 0.25% charcoal; 0.0025% dextran was added to individual well. Plate was shaken for 15 min at 4′C followed by centrifugation at 3000 rpm for 30 min at 4° C. 150 μL of supernatant was transferred into scint-tube (PerkinElmer, Cat: 6000192) and mixed with 2 mL of Ultima Gold Cocktail (PerkinElmer, Cat: 6013329). Radioactivity was counted using a TriCarb 2910 TR scintillation counter (PerkinElmer). Inhibition of the radioactivity by test articles were calculated using the equation below: % Inhibition=(1−(Assay well−Average_LC)/(Average_HC−Average_LC))×100%.

[2] = target: T1, AR in LNCaP cytosol (Homo sapiens, UniProt P10275, T878A); assay: AR binding assay (3H-methyltrienolone displacement)
T1 construct: endogenous in cells; host or cells: LNCaP cytosol
T1 sequence (P10275 1-920 T878A): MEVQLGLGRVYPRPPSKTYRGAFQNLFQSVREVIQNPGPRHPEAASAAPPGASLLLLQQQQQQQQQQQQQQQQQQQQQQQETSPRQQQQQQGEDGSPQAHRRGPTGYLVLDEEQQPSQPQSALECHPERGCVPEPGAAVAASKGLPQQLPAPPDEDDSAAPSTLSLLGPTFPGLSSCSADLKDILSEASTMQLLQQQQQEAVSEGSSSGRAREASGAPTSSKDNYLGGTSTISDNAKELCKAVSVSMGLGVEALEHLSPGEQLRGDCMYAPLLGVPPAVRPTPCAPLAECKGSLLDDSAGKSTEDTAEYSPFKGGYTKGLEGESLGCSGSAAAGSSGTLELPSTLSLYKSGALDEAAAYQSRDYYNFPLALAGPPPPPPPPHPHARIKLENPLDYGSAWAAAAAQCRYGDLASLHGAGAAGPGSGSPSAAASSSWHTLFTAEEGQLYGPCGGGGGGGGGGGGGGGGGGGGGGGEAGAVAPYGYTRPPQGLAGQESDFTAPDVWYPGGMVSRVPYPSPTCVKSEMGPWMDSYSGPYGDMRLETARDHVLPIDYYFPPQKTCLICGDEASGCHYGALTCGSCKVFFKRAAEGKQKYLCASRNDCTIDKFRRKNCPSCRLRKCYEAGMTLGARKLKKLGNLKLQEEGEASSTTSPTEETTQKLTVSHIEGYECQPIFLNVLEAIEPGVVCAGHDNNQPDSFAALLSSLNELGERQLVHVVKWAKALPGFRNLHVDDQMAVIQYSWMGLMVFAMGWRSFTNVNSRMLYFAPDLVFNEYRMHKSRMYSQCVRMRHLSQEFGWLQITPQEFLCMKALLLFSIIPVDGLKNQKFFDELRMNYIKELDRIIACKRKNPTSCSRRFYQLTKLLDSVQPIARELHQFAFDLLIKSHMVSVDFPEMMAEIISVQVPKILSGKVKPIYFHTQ
Protocol: as §1
IC50 values were calculated and graphed using the model “log(inhibitor) vs. response—Variable slope” included in GraphPad Prism 5 (San Diego, CA). The Ki values were further calculated using the equation below where [L] was the radioligand concentration (1 nM) using in this study. Kd value was 0.332 nM. Ki=IC50/(1+[L]/Kd) c. AR transactivation: Human AR cloned into a CMV vector backbone was used for the transactivation study. HEK-293 cells were plated at 80,000 cells per well of a 24 well plate in DME+5% csFBS. Twenty four hours later, the cells were transfected using Lipofectamine (Invitrogen, Carlsbad, CA) with 0.25 μg GRE-LUC, 0.01 μg CMV-LUC (renilla luciferase) and 25 ng of the AR in OPTIMEM medium. The cells were treated 24 hrs after transfection with various ligands (10^−12 to 10^−5 M final concentrations) and luciferase assay were performed 48 hours after transfection. […]

[3] = 2.5 nM enzyme, histone H4, 10 μM 32P-NAD+, read-out: PARP1 IC50
[4] = Ki=IC50/(1+[L]/Kd), [L] 1 nM, Kd 0.332 nM, read-out: AR Ki

Human recombinant PARP1, sequence (P09874 whole entry): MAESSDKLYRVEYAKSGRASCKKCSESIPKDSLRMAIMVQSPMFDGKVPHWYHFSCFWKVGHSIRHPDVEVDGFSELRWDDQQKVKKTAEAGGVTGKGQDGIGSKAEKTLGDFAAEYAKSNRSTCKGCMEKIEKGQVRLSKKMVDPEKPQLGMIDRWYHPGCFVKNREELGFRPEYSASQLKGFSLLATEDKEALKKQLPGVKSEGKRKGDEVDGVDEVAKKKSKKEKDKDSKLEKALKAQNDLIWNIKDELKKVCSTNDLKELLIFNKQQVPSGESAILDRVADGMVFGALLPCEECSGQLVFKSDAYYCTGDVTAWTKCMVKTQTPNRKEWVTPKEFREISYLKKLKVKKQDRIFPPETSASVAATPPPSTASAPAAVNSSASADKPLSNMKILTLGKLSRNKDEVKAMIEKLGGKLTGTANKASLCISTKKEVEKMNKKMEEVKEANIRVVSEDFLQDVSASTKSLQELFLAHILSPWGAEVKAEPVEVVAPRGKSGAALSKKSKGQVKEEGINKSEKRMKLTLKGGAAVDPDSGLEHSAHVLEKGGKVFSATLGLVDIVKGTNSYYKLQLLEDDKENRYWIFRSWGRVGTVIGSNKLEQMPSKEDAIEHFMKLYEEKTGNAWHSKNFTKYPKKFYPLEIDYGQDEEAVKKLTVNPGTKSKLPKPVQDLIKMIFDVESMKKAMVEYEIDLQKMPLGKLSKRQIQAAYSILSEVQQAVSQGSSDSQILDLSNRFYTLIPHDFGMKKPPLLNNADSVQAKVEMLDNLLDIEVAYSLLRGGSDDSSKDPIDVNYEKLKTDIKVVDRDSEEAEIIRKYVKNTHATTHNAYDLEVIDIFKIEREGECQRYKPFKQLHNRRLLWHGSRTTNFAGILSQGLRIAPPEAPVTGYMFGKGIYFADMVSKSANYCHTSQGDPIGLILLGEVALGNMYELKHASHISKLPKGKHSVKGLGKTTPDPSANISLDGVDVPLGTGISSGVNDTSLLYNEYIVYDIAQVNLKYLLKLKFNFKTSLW

SMILES	IC50 [1]	Ki [2]	IC50 [1, 3]	Ki [2, 4]
C[C@](O)(CS(=O)(=O)c1ccc(NCCN2CCN(C(=O)c3cc(Cc4n[nH]c(=O)c5ccccc45)ccc3F)CC2)cc1)C(=O)Nc1ccc(C#N)c(C(F)(F)F)c1 [Compound 1.99, (R)-N-(4-cyano-3-(trifluoromethyl)phenyl)-3-(4-(2-(4-(2-fluoro-5-((4-oxo-3,4-dihydrophthalazin-1-yl)methyl)benzoyl)piperazin-1-yl)ethylamino)phenylsulfonyl)-2-hydroxy-2-methylpropanamide]	0.8 nM	197 nM	–	–
C[C@]12CCC(=O)C[C@@H]1CC[C@@H]1[C@@H]2CC[C@]2(C)[C@@H](OCCOCC(=O)N3CCN(C(=O)c4cc(Cc5n[nH]c(=O)c6ccccc56)ccc4F)CC3)CC[C@@H]12 [Compound 1.104, 4-(3-(4-(2-(2-((5S,8R,9S,10S,13S,14S,17S)-10,13-dimethyl-3-oxohexadeca hydro-1H-cyclopenta[a]phenanthren-17-yloxy)ethoxy)acetyl)piperazine-1-carbonyl)-4-fluorobenzyl)phthalazin-1(2H)-one]	–	–	1.2 nM	167 nM
C[C@]12CCC(=O)C[C@@H]1CC[C@@H]1[C@@H]2CC[C@@]2(C)[C@H]1CC[C@@]2(O)c1cn(CC(=O)N2CCN(C(=O)c3cc(Cc4n[nH]c(=O)c5ccccc45)ccc3F)CC2)nn1 [Compound 1.107, 4-(4-fluoro-3-(4-(2-(4-((5S,8R,9S,10S,13S,14S,17S)-17-hydroxy-10,13-dimethyl-3-oxohexadecahydro-1H-cyclopenta[a]phenanthren-17-yl)-1H-1,2,3-triazol-1-yl)acetyl)piperazine-1-carbonyl)benzyl)phthalazin-1(2H)-one]	–	–	0.3 nM	> 7470 nM
C[C@]12CCC(=O)C[C@@H]1CC[C@@H]1[C@@H]2CC[C@]2(C)[C@@H](OCC(=O)N3CCN(C(=O)c4cc(Cc5n[nH]c(=O)c6ccccc56)ccc4F)CC3)CC[C@@H]12 [Compound 1.110, 4-(3-(4-(2-((5S,8R,9S,10S,13S,14S,17S)-10,13-dimethyl-3-oxohexadecahydro-1H-cyclopenta[a]phenanthren-17-yloxy)acetyl)piperazine-1-carbonyl)-4-fluorobenzyl)phthalazin-1(2H)-one]	–	60 nM	0.7 nM	–
C[C@]12CCC(O)C[C@@H]1CC[C@@H]1[C@@H]2CC[C@]2(C)[C@@H](OCCCCCC(=O)N3CCN(C(=O)c4cc(Cc5n[nH]c(=O)c6ccccc56)ccc4F)CC3)CC[C@@H]12 (stereo partly drawn) [Compound 1.111, 4-(4-fluoro-3-(4-(6-((5S,8R,9S,10S,13S,14S,17S)-3-hydroxy-10,13-dimethylhexadecahydro-1H-cyclopenta[a]phenanthren-17-yloxy)hexanoyl)piperazine-1-carbonyl)benzyl)phthalazin-1(2H)-one]	–	36 nM	1.6 nM	–
C[C@]12CCC(F)(F)C[C@@H]1CC[C@@H]1[C@@H]2CC[C@]2(C)[C@@H](OCCCCCC(=O)N3CCN(C(=O)c4cc(Cc5n[nH]c(=O)c6ccccc56)ccc4F)CC3)CC[C@@H]12 [Compound 1.114, 4-(3-(4-(6-((5S,8R,9S,10S,13S,14S,17S)-3,3-difluoro-10,13-dimethylhexadecahydro-1H-cyclopenta[a]phenanthren-17-yloxy)hexanoyl)piperazine-1-carbonyl)-4-fluorobenzyl)phthalazin-1(2H)-one]	–	19 nM	27.9 nM	–
C[C@]12CCC(=O)C[C@@H]1CC[C@@H]1[C@@H]2CC[C@@]2(C)[C@H]1CC[C@@]2(O)C#CC(=O)N1CCN(C(=O)c2cc(Cc3n[nH]c(=O)c4ccccc34)ccc2F)CC1 [Compound 1.116, 4-(4-fluoro-3-(4-(3-((5S,8R,9S,10S,13S,14S,17S)-17-hydroxy-10,13-dimethyl-3-oxohexadecahydro-1H-cyclopenta[a]phenanthren-17-yl)propioloyl)piperazine-1-carbonyl)benzyl)phthalazin-1(2H)-one]	–	–	0.5 nM	4970 nM
